The test system of data set [1] is LA1. As to the kind of experiment: Potentiation of UV-irradiation-induced apoptosis in AHR deficient mouse LA1 cells assessed as increase in caspase-3 activity at 0.1 to 1 uM incubated for 24 hrs before UV-irradiation for 24 hrs by caspase 3 Assay. Particulars: dose 0.1-1 µM, time 48.0 hrs.
Data set [2] is described as follows: Toxicity in AHR deficient mouse LA1 cells assessed as induction of apoptosis by measuring increase in caspase-3 activity at 0.1 to 1 uM incubated for 24 hrs in absence of UV-irradiation by caspase 3 Assay. Particulars: la1, 24 h.
For data set [3], the target named is Aryl hydrocarbon receptor (Mus musculus) (UniProt P30561). In words: Antagonist activity at AHR in wild type mouse Hepa1c1c7 cells assessed as reduction in inhibition of Akt/PKB phosphorylation at 10 uM incubated for 24 hrs before UV-irradiation and measured after 30 to 60 mins by Western blot analysis. Particulars: hepa1c1c7, 10 µM. On the technique in general: In western blotting, separated proteins are transferred to a membrane and probed.

The target is the same in data set [4]. As to the kind of experiment: Antagonist activity at AHR in wild type mouse Hepa1c1c7 cells assessed as potentiation of UV-irradiation-induced apoptosis by measuring increase in caspase-3 activity at 0.1 to 1 uM incubated for 24 hrs before UV-irradiation for 24 hrs by caspase 3 Assay. Particulars: hepa1c1c7, 48 h.
Data set [5] has the same target. As to the kind of experiment: Antagonist activity at AHR in wild type mouse Hepa1c1c7 cells assessed as reduction in inhibition of EGFR phosphorylation at 10 uM incubated for 24 hrs before UV-irradiation and measured after 30 mins by Western blot analysis. Particulars: hepa1c1c7, 24 h.

Experimental findings from ChEMBL document CHEMBL5647681, “Lack of the aryl hydrocarbon receptor leads to impaired activation of AKT/protein kinase B and enhanced sensitivity to apoptosis induced via the intrinsic pathway” (J Pharmacol Exp Ther, 2007) are described below.

Calls of active or inactive are those of the source. No cut-off for these calls is given here.

Sequence of Aryl hydrocarbon receptor (Mus musculus) (P30561 whole entry, looked up): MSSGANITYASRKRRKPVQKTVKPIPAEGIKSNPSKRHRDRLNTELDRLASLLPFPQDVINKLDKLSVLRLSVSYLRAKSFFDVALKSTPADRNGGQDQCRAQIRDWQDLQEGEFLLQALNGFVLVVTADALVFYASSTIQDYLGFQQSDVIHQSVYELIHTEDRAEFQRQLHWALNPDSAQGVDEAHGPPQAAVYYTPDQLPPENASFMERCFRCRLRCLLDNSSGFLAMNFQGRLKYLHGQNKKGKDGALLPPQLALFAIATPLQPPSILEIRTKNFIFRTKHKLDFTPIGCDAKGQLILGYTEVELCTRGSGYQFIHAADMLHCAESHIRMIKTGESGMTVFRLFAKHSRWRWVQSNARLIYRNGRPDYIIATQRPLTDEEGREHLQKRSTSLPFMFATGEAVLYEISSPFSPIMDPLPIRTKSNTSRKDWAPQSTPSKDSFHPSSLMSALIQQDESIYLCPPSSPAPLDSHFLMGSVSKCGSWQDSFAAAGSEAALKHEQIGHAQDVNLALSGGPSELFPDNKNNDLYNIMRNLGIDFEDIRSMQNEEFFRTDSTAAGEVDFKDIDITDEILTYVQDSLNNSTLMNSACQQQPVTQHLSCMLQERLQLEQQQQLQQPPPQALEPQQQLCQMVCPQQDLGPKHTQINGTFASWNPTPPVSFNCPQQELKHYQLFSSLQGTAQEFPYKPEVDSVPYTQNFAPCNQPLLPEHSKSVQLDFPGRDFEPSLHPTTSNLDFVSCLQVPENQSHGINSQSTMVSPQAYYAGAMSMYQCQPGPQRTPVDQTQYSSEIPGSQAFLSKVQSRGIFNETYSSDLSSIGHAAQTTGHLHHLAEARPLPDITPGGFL

In the case of `COc1cc(-c2cc(=O)c3ccccc3o2)ccc1[N+](=O)[O-]`, the outcome in data set [1] was Active. The Activity entry in data set [2] is “Non-Toxic”; in data set [3], “Active”; in data set [4], “Active”; in data set [5], “Active”.
